Laboratory results as given in patent publication US4767758A, “Pharmaceutical compositions containing thiophene compounds, and new thiophene compounds” (Consiglio Nazionale Delle Ricerche, priority 1984, dated 1988).

Key:
[1] = tested on: L 929 cells; experiment: Radiosensitization of cells in hypoxic condition under gamma radiation (Table 1); format: cell-based
Procedure: The biological and pharmacological activity of the compounds under examination was tested on cell cultures and under gamma radiations. […] These aqueous solutions were added to cell cultures containing from 50 to 60 L 929 cells per mm^2; nutrient solution RPM-1-1640 containing 3% calf serum. Contact between the cells and the compound under examination was continued for six hours under nitrogen and under air. Parts of the solutions during the contact with the drug were irradiated in gamma cell with 1000, 2000 and 3000 rad always using a control sample without the drug.

[2] = tested on: L 929 cells; experiment: Cytotoxicity on cell cultures (Table 2)
Procedure: The biological and pharmacological activity of the compounds under examination was tested on cell cultures and under gamma radiations. Concentrations of 10^-6, 5×10^-6, 10^-5 and 10^-3 M of each compound were used. These aqueous solutions were added to cell cultures containing from 50 to 60 L 929 cells per mm^2; nutrient solution RPM-1-1640 containing 3% calf serum. Contact between the cells and the compound under examination was continued for six hours under nitrogen and under air. Parts of the solutions during the contact with the drug were irradiated in gamma cell with 1000, 2000 and 3000 rad always using a control sample without the drug.

[3] = Reactivity with OH radicals, pulse irradiation (Table 3); settings: KCNS 10^-4 M; pulse 50 nsec, dose 18 Gy; λ=500 nm
Description: (§1) For testing the reactivity with oxygen radicals, solutions of the compounds under examination in very pure water were submitted to irradiation by an electron flow in accordance with the following procedure:
The irradiated solution for measurement of reactivity with OH radicals contained KCNS 10^-4 M and increasing concentrations of the compounds under examination. The concentrations were 10^-6 and 6×10^-6for the first five compounds of Table 1, 10^-5 and 10^-4, 10^-3 M for the other eight compounds.
The water used for the tests was neutral and made absolutely pure by deionization and four distillations also in the presence of oxidizing agents (KMnO4).
The irradiation conditions were: pulse 50 nsec, dose 18 Gy.
Absorption was performed at λ=500 nm.

[4] = Reactivity with O2 radicals, pulsed electron beams (Table 3); settings: potassium formiate solution saturated with O2; 12 MeV pulsed electron beams
Description: as §1
The O2 species was generated by irradiation of a […] solution of potassium formiate satured with O2 with 12 MeV pulsed electron beams.
The concentration of the O2 radical produced is depending from the irradiation dose (which is proportional to the length of the pulse) and was in any case in excess with respect to the concentration of the reacting substance.

[5] = Acute toxicity test by oral and intravenous route on male mice (Table 4); format: in vivo; settings: mouse, in vivo, male mice
Procedure: (§2) The acute toxicity test was carried out by oral and intravenous route on male mice, weighing 19-21 g, which were deprived of meal for 16 hrs before treatment. Oral administration was performed by a gastric probe at doses of 500, 750, 1000 and 2000 mg/kg respectively, of the compounds under examination in aqueous solution of Tween (R). The intravenous administrations was performed in the caudal vein at doses of 100 and 200 mg/kg in 0.9% sodium chloride solution. The administered volumes were 1 ml/20 g by oral route and 0.5 ml/20 g by intravenous route.
(§3) After administration the mice were kept under control for 14 days.

[6] = tested on: male mice; experiment: as above; format: in vivo; settings: 14 days
Procedure: as §2, §3

[7] = culture time 0 hr, 5 × 10^-5 M, control 40
[8] = culture time 6 hr, 5 × 10^-5 M, control 62
[9] = culture time 12 hr, 5 × 10^-5 M, control 80
[10] = culture time 24 hr, 5 × 10^-5 M, control 166
[11] = culture time 0 hr, 0.5 × 10^-5 M, control 40
[12] = culture time 6 hr, 0.5 × 10^-5 M, control 62
[13] = culture time 12 hr, 0.5 × 10^-5 M, control 80
[14] = culture time 24 hr, 0.5 × 10^-5 M, control 166

| Compound | Radiosensitization Index (R.S.I.) ([1]; concentration 1 × 10^-4 M) | Cytotoxicity Index (number of cells) [2, 7] | Cytotoxicity Index (number of cells) [2, 8] | Cytotoxicity Index (number of cells) [2, 9] | Cytotoxicity Index (number of cells) [2, 10] | Reactivity with OH radicals measured as a speed constant (KOH·) [3] [M⁻¹ s⁻¹] | Reactivity with O2 radicals measured as a speed constant (KO2-·) [4] [M⁻¹ s⁻¹] | other results |
| --- | --- | --- | --- | --- | --- | --- | --- | --- |
| CN1CCN(C(=O)c2ccc([N+](=O)[O-])s2)CC1 [Compound 10, 5-nitro-2-carboxythiophene-N-methyl-piperazinamide] | 1.58 | 50 number of cells | 52 number of cells | 60 number of cells | 86 number of cells | 1e+10 | 33000 | – |
| O=C(O)C(C(=O)O)c1csc([N+](=O)[O-])c1 [Compound 12, 5-nitro-3-thiophenemalonic acid] | 1.88 | 50 number of cells | 60 number of cells | 74 number of cells | 136 number of cells | 7.2e+09 | 10000 | LD50 at 336 h ([5]; oral): 1200 mg/kg; Death (dead/treated animals) ([6]; intravenous, 100 mg/kg): 0/5; Death (dead/treated animals) ([6]; intravenous, 200 mg/kg): 0/5; Death (dead/treated animals) ([6]; oral, 500 mg/kg): 0/5; Death (dead/treated animals) ([6]; oral, 750 mg/kg): 0/5; Death (dead/treated animals) ([6]; oral, 1000 mg/kg): 2/5; Death (dead/treated animals) ([6]; oral, 2000 mg/kg): 5/5 |
| ON=Cc1ccc(Br)s1 [Compound 13, 5-bromo-2-thiophenaldoxime] | 1.65 | 43 number of cells | 50 number of cells | 70 number of cells | 130 number of cells | 8e+09 | 23000 | LD50 at 336 h ([5]; oral): 1800 mg/kg; Death (dead/treated animals) ([6]; intravenous, 100 mg/kg): 0/5; Death (dead/treated animals) ([6]; intravenous, 200 mg/kg): 0/5; Death (dead/treated animals) ([6]; oral, 500 mg/kg): 0/5; Death (dead/treated animals) ([6]; oral, 750 mg/kg): 0/5; Death (dead/treated animals) ([6]; oral, 1000 mg/kg): 2/5; Death (dead/treated animals) ([6]; oral, 2000 mg/kg): 3/5 |
| COCC(O)Cn1ccnc1[N+](=O)[O-] (stereo not shown) [Misonidazole, reference compound] | – | – | – | – | – | – | – | Radiosensitization Index (R.S.I.) ([1]; concentration 1 × 10^-3 M): 1.65 |
| O=C(O)CCNC(=O)c1ccc([N+](=O)[O-])s1 [Compound 7] | 1.38 | 56 number of cells | 70 number of cells | 75 number of cells | 164 number of cells | – | – | – |
| O=C(O)c1ccc([N+](=O)[O-])s1 [Compound 6] | 1.82 | 50 number of cells | 60 number of cells | 70 number of cells | 110 number of cells | 7.5e+09 | 100000 | – |
| O=[N+]([O-])c1csc([N+](=O)[O-])c1 [Compound 2] | – | – | – | – | – | – | – | Cytotoxicity Index (number of cells) [2, 11]: 46 number of cells; Cytotoxicity Index (number of cells) [2, 12]: 40 number of cells; Cytotoxicity Index (number of cells) [2, 13]: 68 number of cells; Cytotoxicity Index (number of cells) [2, 14]: 80 number of cells |
| CC(=O)Nc1ccc([N+](=O)[O-])s1 [Compound 11, 5-nitro-2-(N-acetyl)-thienylamine] | 1.65 | 44 number of cells | 52 number of cells | 60 number of cells | 90 number of cells | – | – | – |
| O=C(O)CCCNC(=O)c1ccc([N+](=O)[O-])s1 [Compound 8] | 1.30 | 47 number of cells | 50 number of cells | 80 number of cells | 152 number of cells | – | – | – |
| CS(=O)(=O)c1cc([N+](=O)[O-])c(I)s1 [Compound 3] | – | – | – | – | – | – | – | Cytotoxicity Index (number of cells) [2, 11]: 37 number of cells; Cytotoxicity Index (number of cells) [2, 12]: 30 number of cells; Cytotoxicity Index (number of cells) [2, 13]: 35 number of cells; Cytotoxicity Index (number of cells) [2, 14]: 50 number of cells |
| O=[N+]([O-])c1ccc(Oc2sccc2[N+](=O)[O-])cc1 [Compound 4] | – | – | – | – | – | 1.3e+10 | 20000 | Cytotoxicity Index (number of cells) [2, 11]: 56 number of cells; Cytotoxicity Index (number of cells) [2, 12]: 34 number of cells; Cytotoxicity Index (number of cells) [2, 13]: 48 number of cells; Cytotoxicity Index (number of cells) [2, 14]: 70 number of cells |
| O=[N+]([O-])c1cc([N+](=O)[O-])c(I)s1 [Compound 1] | – | – | – | – | – | 2.1e+10 | 3.5e+06 | LD50 at 336 h ([5]; intravenous): 200 mg/kg; LD50 at 336 h ([5]; oral): 760 mg/kg; Death (dead/treated animals) ([6]; intravenous, 100 mg/kg): 0/5; Death (dead/treated animals) ([6]; intravenous, 200 mg/kg): 0/5; Death (dead/treated animals) ([6]; oral, 500 mg/kg): 0/5; Death (dead/treated animals) ([6]; oral, 750 mg/kg): 2/5; Death (dead/treated animals) ([6]; oral, 1000 mg/kg): 5/5; Cytotoxicity Index (number of cells) [2, 11]: 36 number of cells; Cytotoxicity Index (number of cells) [2, 12]: 35 number of cells; Cytotoxicity Index (number of cells) [2, 13]: 42 number of cells; Cytotoxicity Index (number of cells) [2, 14]: 71 number of cells |
| NC(=O)c1ccc([N+](=O)[O-])s1 [Compound 5] | – | 40 number of cells | 32 number of cells | 50 number of cells | 80 number of cells | 2.3e+10 | 30000 | Radiosensitization Index (R.S.I.) ([1]; concentration 5 × 10^-5 M): 1.40 |
| O=C(c1ccc([N+](=O)[O-])s1)N1CCOCC1 [Compound 9, 5-nitro-2-carboxythiophene-morpholinamide] | 1.56 | 64 number of cells | 60 number of cells | 80 number of cells | 138 number of cells | 3.1e+10 | 230000 | LD50 at 336 h ([5]; oral): 2000 mg/kg; Death (dead/treated animals) ([6]; intravenous, 100 mg/kg): 0/5; Death (dead/treated animals) ([6]; intravenous, 200 mg/kg): 0/5; Death (dead/treated animals) ([6]; oral, 500 mg/kg): 0/5; Death (dead/treated animals) ([6]; oral, 750 mg/kg): 0/5; Death (dead/treated animals) ([6]; oral, 1000 mg/kg): 1/5; Death (dead/treated animals) ([6]; oral, 2000 mg/kg): 3/5 |
